Results from the supplement of paper PMC10307832.

Experiments:
Experiment in all cases: relative viability (nuclei count vs DMSO), 5 days (fraction); higher = more cells survive
[1] = system: ChaGo-K-1
In short: (§1)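 Values are medians from duplicate plates. Each reflects relative viability, defined as the nuclei count of treated wells over that of vehicle wells. Lung cancer cell lines in 1536-well plates were pin-tool dosed one day after seeding with one drug alone or with a fixed anchor-drug dose plus five library-drug doses (not always all listed) in √10 steps, then fixed, stained and imaged at 4× after 5 days.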

[2] = system: EKVX
In short: as §1

[3] = system: EMC-BAC-2
In short: as §1

[4] = system: H3255
In short: as §1

[5] = system: HARA
In short: as §1

[6] = system: HCC-15
In short: as §1

[7] = system: HCC-827
In short: as §1

[8] = system: LC-2-ad
In short: as §1

[9] = system: LCLC-97TM1
In short: as §1

[10] = system: LU99A
In short: as §1

[11] = system: NCI-H1437
In short: as §1

[12] = system: NCI-H1793
In short: as §1

[13] = system: NCI-H1915
In short: as §1

[14] = system: NCI-H1944
In short: as §1

[15] = system: NCI-H2126
In short: as §1

[16] = system: NCI-H23
In short: as §1

[17] = system: NCI-H322M
In short: as §1

[18] = system: NCI-H441
In short: as §1

[19] = system: NCI-H460
In short: as §1

[20] = system: NCI-H661
In short: as §1

[21] = system: PC-3 [JPC-3]
In short: as §1

[22] = system: SK-LU-1
In short: as §1

Work on `Cc1cnc(-c2cnc(NCCNc3ccc(C#N)cn3)nc2-c2ccc(Cl)cc2Cl)[nH]1` + COc1cc2c(Oc3ccc(NC(=O)C4(C(=O)Nc5ccc(F)cc5)CC4)cc3F)ccnc2cc1OCCCN1CCOCC1 [Foretinib] (partner 0.25 µM) yielded a relative viability ([1]; first compound 0.08 µM) of 0.941, a relative viability ([1]; first compound 0.253 µM) of 0.84 and a relative viability ([1]; first compound 0.8 µM) of 0.945. For the same compound, the relative viability ([1]; first compound 2.53 µM) was 0.921, the relative viability ([2]; first compound 0.08 µM) was 0.588 and the relative viability ([2]; first compound 0.253 µM) was 0.555. The relative viability ([2]; first compound 0.8 µM) was 0.626, the relative viability ([2]; first compound 2.53 µM) was 0.727 and the relative viability ([3]; first compound 0.08 µM) was 1.1. It also gave a relative viability ([3]; first compound 0.253 µM) of 0.964, a relative viability ([3]; first compound 0.8 µM) of 1.02 and a relative viability ([3]; first compound 2.53 µM) of 0.939. For the same compound, the relative viability ([4]; first compound 0.08 µM) was 0.956, the relative viability ([4]; first compound 0.253 µM) was 0.696 and the relative viability ([4]; first compound 0.8 µM) was 0.988. The relative viability ([4]; first compound 2.53 µM) was 0.841, the relative viability ([5]; first compound 0.08 µM) was 1 and the relative viability ([5]; first compound 0.253 µM) was 0.773. It also gave a relative viability ([5]; first compound 0.8 µM) of 0.818, a relative viability ([5]; first compound 2.53 µM) of 0.877 and a relative viability ([6]; first compound 0.08 µM) of 1.12. For the same compound, the relative viability ([6]; first compound 0.253 µM) was 0.895, the relative viability ([6]; first compound 0.8 µM) was 1.02 and the relative viability ([6]; first compound 2.53 µM) was 0.941. For the same compound, the relative viability ([7]; first compound 0.08 µM) was 1.04, the relative viability ([7]; first compound 0.8 µM) was 0.983 and the relative viability ([7]; first compound 2.53 µM) was 0.976. The relative viability ([8]; first compound 0.08 µM) was 0.996, the relative viability ([8]; first compound 0.253 µM) was 0.711 and the relative viability ([8]; first compound 2.53 µM) was 1.03. It also gave a relative viability ([9]; first compound 0.08 µM) of 0.917, a relative viability ([9]; first compound 0.8 µM) of 0.878 and a relative viability ([9]; first compound 2.53 µM) of 0.86. It also gave a relative viability ([10]; first compound 0.08 µM) of 0.908, a relative viability ([10]; first compound 0.253 µM) of 0.701 and a relative viability ([10]; first compound 0.8 µM) of 0.83. It also gave a relative viability ([10]; first compound 2.53 µM) of 0.765, a relative viability ([11]; first compound 0.08 µM) of 1.18 and a relative viability ([11]; first compound 0.253 µM) of 1.25. The relative viability ([11]; first compound 0.8 µM) was 1.24, the relative viability ([11]; first compound 2.53 µM) was 1.25 and the relative viability ([12]; first compound 0.08 µM) was 0.807. It also gave a relative viability ([12]; first compound 0.253 µM) of 0.545, a relative viability ([12]; first compound 0.8 µM) of 0.684 and a relative viability ([12]; first compound 2.53 µM) of 0.723. It also gave a relative viability ([13]; first compound 0.08 µM) of 1.11, a relative viability ([13]; first compound 0.253 µM) of 0.844 and a relative viability ([13]; first compound 0.8 µM) of 1.1. For the same compound, the relative viability ([13]; first compound 2.53 µM) was 1.07, the relative viability ([14]; first compound 0.08 µM) was 0.885 and the relative viability ([14]; first compound 0.8 µM) was 0.902. For the same compound, the relative viability ([14]; first compound 2.53 µM) was 0.91, the relative viability ([15]; first compound 0.08 µM) was 1.33 and the relative viability ([15]; first compound 0.253 µM) was 1.22. It also gave a relative viability ([15]; first compound 0.8 µM) of 1, a relative viability ([15]; first compound 2.53 µM) of 1.08 and a relative viability ([16]; first compound 0.08 µM) of 0.938. For the same compound, the relative viability ([16]; first compound 0.253 µM) was 1, the relative viability ([16]; first compound 0.8 µM) was 0.983 and the relative viability ([16]; first compound 2.53 µM) was 1. It also gave a relative viability ([17]; first compound 0.08 µM) of 1.07, a relative viability ([17]; first compound 0.253 µM) of 0.856 and a relative viability ([17]; first compound 0.8 µM) of 1. For the same compound, the relative viability ([17]; first compound 2.53 µM) was 1.2, the relative viability ([18]; first compound 0.08 µM) was 1.2 and the relative viability ([18]; first compound 0.253 µM) was 0.926. For the same compound, the relative viability ([18]; first compound 0.8 µM) was 1.01, the relative viability ([18]; first compound 2.53 µM) was 0.958 and the relative viability ([19]; first compound 0.08 µM) was 1.1. It also gave a relative viability ([19]; first compound 0.253 µM) of 0.947, a relative viability ([19]; first compound 0.8 µM) of 0.981 and a relative viability ([19]; first compound 2.53 µM) of 0.885. The relative viability ([20]; first compound 0.08 µM) was 1.05, the relative viability ([20]; first compound 0.253 µM) was 0.99 and the relative viability ([20]; first compound 0.8 µM) was 1.01. For the same compound, the relative viability ([20]; first compound 2.53 µM) was 0.894, the relative viability ([21]; first compound 0.08 µM) was 0.978 and the relative viability ([21]; first compound 0.253 µM) was 0.926. The relative viability ([21]; first compound 0.8 µM) was 1.03, the relative viability ([21]; first compound 2.53 µM) was 1.03 and the relative viability ([22]; first compound 0.08 µM) was 0.865. For the same compound, the relative viability ([22]; first compound 0.253 µM) was 0.833, the relative viability ([22]; first compound 0.8 µM) was 0.983 and the relative viability ([22]; first compound 2.53 µM) was 1.03.
